From PubChem BioAssay (NCI) come the findings set out here.

Test systems include SF-295 CNS; KM12 colon; M14 melanoma; SF-539 CNS; A549 NSCLC; OVCAR-5 ovarian; NCI/ADR-RES ovarian; K-562 leukemia; HCT-116 colon; HCT-15 colon.
What all share (assay): NCI-60 cell line screen, 48 h

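Step 1: Grow cells in 96-well plates. Step 2: Expose to compound for 48 hours at 5 concentrations. Step 3: Interpolate endpoints linearly; if unreached, use highest concentration. At the GI50, growth is halved. TGI marks complete inhibition of growth.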

As to `C#CC#CC#CC#CC#CC#CC#CC#CCC1OC[C@H](COC(=O)O[C@@H](C(=O)O[C@H]2C[C@@]3(O)[C@@H](OC(=O)c4ccccc4)[C@@H]4[C@]5(OC(C)=O)CO[C@@H]5C[C@H](O)[C@@]4(C)C(=O)[C@H](OC(C)=O)C(=C2C)C3(C)C)[C@@H](NC(=O)c2ccccc2)c2ccccc2)O1` (stereo partly drawn), the GI50 in the assay on SF-295 CNS is 1.01 µM; in the assay with KM12 colon it was 0.196 µM; in the assay on M14 melanoma, 0.386 µM; in the assay on SF-539 CNS, 0.298 µM; with A549 NSCLC, 0.295 µM; with OVCAR-5 ovarian it was 0.554 µM. In addition, the GI50 was more than 33.3 µM in the assay with NCI/ADR-RES ovarian, 0.255 µM with K-562 leukemia, 0.145 µM with HCT-116 colon and 11.7 µM in the assay with HCT-15 colon. Besides, the TGI was more than 27.5 µM in the assay with SF-295 CNS; more than 33.3 µM in the assay on KM12 colon; 3.59 µM in the assay with M14 melanoma; 4.68 µM in the assay on SF-539 CNS; more than 33.3 µM with A549 NSCLC; more than 33.3 µM in the assay on OVCAR-5 ovarian. Moreover, the TGI in the assay on NCI/ADR-RES ovarian, in the assay on K-562 leukemia, in the assay on HCT-116 colon and in the assay on HCT-15 colon was more than 33.3 µM each time.

As for `C=C(C(=O)OC)[C@@H]1C[C@@H](O)[C@]2(C)CC/C=C(\C)CCC[C@H](C)[C@H](O)C1O2`, the GI50 in the assay with SF-295 CNS is 83.8 µM; in the assay on KM12 colon, 41 µM; in the assay on M14 melanoma it was 44 µM; in the assay on SF-539 CNS, more than 100 µM; with A549 NSCLC it was 61.3 µM; in the assay with OVCAR-5 ovarian, more than 100 µM. Also, the GI50 with NCI/ADR-RES ovarian is 83.7 µM; in the assay with K-562 leukemia, 22.2 µM; in the assay on HCT-116 colon, 21.1 µM; in the assay on HCT-15 colon, 59 µM. The TGI in the assay on SF-295 CNS, in the assay on KM12 colon, with M14 melanoma, in the assay on SF-539 CNS, with A549 NSCLC and with OVCAR-5 ovarian was more than 100 µM throughout. The TGI with NCI/ADR-RES ovarian was more than 100 µM; in the assay with K-562 leukemia, 62.2 µM; in the assay with HCT-116 colon, 58 µM; in the assay with HCT-15 colon, more than 100 µM.

With `Cc1[nH]nc(C(=O)Nc2n[nH]c3ccccc23)c1[N+](=O)[O-]`, the GI50 in the assay on SF-295 CNS was more than 100 µM; in the assay with KM12 colon it was more than 100 µM; in the assay on M14 melanoma, more than 96.2 µM; with SF-539 CNS it was more than 100 µM; with A549 NSCLC, more than 66.6 µM; in the assay with OVCAR-5 ovarian, more than 100 µM. The GI50 in the assay on NCI/ADR-RES ovarian was more than 100 µM; in the assay on K-562 leukemia, more than 100 µM; in the assay on HCT-116 colon it was more than 100 µM; with HCT-15 colon, 33.4 µM. Besides, the TGI in the assay on SF-295 CNS, with KM12 colon, in the assay with M14 melanoma, with SF-539 CNS, with A549 NSCLC and in the assay with OVCAR-5 ovarian was more than 100 µM each time. In addition, the TGI in the assay on NCI/ADR-RES ovarian, in the assay on K-562 leukemia, with HCT-116 colon and with HCT-15 colon was more than 100 µM each time.

With `O=C(CC(=O)c1ccccc1NC1=Cc2ccccc2C(=O)C1=O)C(=O)NC1=C(Cl)C(=O)c2ccccc2C1=O`, the TGI in the assay on SF-295 CNS turned out to be 11.7 µM; in the assay on KM12 colon it was 15.6 µM; in the assay with M14 melanoma, 4.12 µM; with SF-539 CNS, 9.11 µM; in the assay with A549 NSCLC, 16.5 µM; in the assay with OVCAR-5 ovarian it was 12.6 µM. In addition, the TGI was 7 µM with NCI/ADR-RES ovarian, 9.7 µM in the assay on K-562 leukemia, 6.37 µM with HCT-116 colon and 6.03 µM with HCT-15 colon.

For the molecule `COc1ccc2sc3c(NCCCNCCO)nc4ccccc4c3c(=O)c2c1`, the GI50 was 1.73 µM in the assay with SF-295 CNS; 1.62 µM in the assay with KM12 colon; 1.82 µM in the assay on M14 melanoma; 1.65 µM with SF-539 CNS; 1.68 µM in the assay on A549 NSCLC; 1.6 µM with OVCAR-5 ovarian. Moreover, the GI50 was 1.76 µM with NCI/ADR-RES ovarian, 1.83 µM with K-562 leukemia, 1.59 µM with HCT-116 colon and 1.45 µM with HCT-15 colon. For the same molecule, the TGI in the assay with SF-295 CNS was 3.15 µM; in the assay with KM12 colon it was 3.12 µM; in the assay with M14 melanoma, 3.48 µM; with SF-539 CNS it was 3.1 µM; in the assay with A549 NSCLC, 3.31 µM; in the assay on OVCAR-5 ovarian it was 3.05 µM. In addition, the TGI in the assay with NCI/ADR-RES ovarian stood at 3.53 µM; in the assay with K-562 leukemia, 4.32 µM; in the assay with HCT-116 colon it was 3.03 µM; with HCT-15 colon, 2.87 µM.

For the molecule `O=C1C(=O)c2c(nc3ncccn23)-c2ccccc21`, the GI50 was 0.173 µM in the assay on SF-295 CNS; 0.678 µM in the assay with KM12 colon; 0.182 µM with M14 melanoma; 0.188 µM with SF-539 CNS; 0.23 µM in the assay with A549 NSCLC; 0.397 µM in the assay on OVCAR-5 ovarian. In addition, the GI50 with NCI/ADR-RES ovarian is 0.301 µM; in the assay with K-562 leukemia, 0.219 µM; with HCT-116 colon, 0.184 µM; with HCT-15 colon it was 0.166 µM. Moreover, the TGI came to 0.316 µM in the assay with SF-295 CNS; 1.9 µM in the assay on KM12 colon; 0.343 µM in the assay with M14 melanoma; 0.388 µM in the assay with SF-539 CNS; 0.516 µM in the assay on A549 NSCLC; 0.852 µM in the assay on OVCAR-5 ovarian. Also, the TGI with NCI/ADR-RES ovarian came out at 0.962 µM; with K-562 leukemia, 2.75 µM; with HCT-116 colon, 0.379 µM; in the assay with HCT-15 colon, 0.358 µM.

As for `CC(C)(C)c1nnc2n(c1=O)N=CC(c1ccc(Br)cc1)S2` (stereo not drawn), the GI50 with SF-295 CNS is 12.1 µM; with KM12 colon, 26.1 µM; with M14 melanoma, 24.4 µM; in the assay on SF-539 CNS it was 19.7 µM; with A549 NSCLC it was 43 µM; in the assay with OVCAR-5 ovarian, 42.2 µM. Further, the GI50 in the assay with NCI/ADR-RES ovarian was 26.4 µM; with K-562 leukemia, 26.5 µM; in the assay with HCT-116 colon it was 23.9 µM; in the assay on HCT-15 colon, 20.1 µM. Further, the TGI with SF-295 CNS was 58.9 µM; with KM12 colon it was more than 100 µM; in the assay on M14 melanoma it was 63.1 µM; in the assay with SF-539 CNS, 50.9 µM; with A549 NSCLC it was more than 100 µM; in the assay on OVCAR-5 ovarian, more than 100 µM. Further, the TGI with NCI/ADR-RES ovarian was 61.6 µM; in the assay with K-562 leukemia, more than 100 µM; in the assay with HCT-116 colon, 50.9 µM; in the assay on HCT-15 colon, 48 µM.

`COc1cccc(C2C(C#N)=C(N)Oc3cc(OC)ccc32)c1` (stereo not drawn): the GI50 in the assay with SF-295 CNS is 0.0286 µM; in the assay on KM12 colon, 0.0314 µM; in the assay on M14 melanoma it was 0.0271 µM; in the assay with SF-539 CNS it was 0.0231 µM; with A549 NSCLC, 0.0496 µM; with OVCAR-5 ovarian, 0.0678 µM. Moreover, the GI50 was 0.0184 µM in the assay on NCI/ADR-RES ovarian, 0.0203 µM with K-562 leukemia, 0.0479 µM in the assay with HCT-116 colon and 0.0366 µM in the assay on HCT-15 colon. Also, the TGI in the assay with SF-295 CNS is 33.9 µM; in the assay on KM12 colon, 5.61 µM; in the assay with M14 melanoma it was more than 100 µM; in the assay with SF-539 CNS it was 0.0596 µM; in the assay on A549 NSCLC, more than 100 µM; with OVCAR-5 ovarian, more than 100 µM. Besides, the TGI with K-562 leukemia is more than 100 µM; with HCT-116 colon, 12.4 µM; in the assay with HCT-15 colon it was more than 100 µM.

As to `Clc1ccc(-c2cn(-c3ccccc3)c(-c3ccccc3)n2)c(Cl)c1`, the GI50 in the assay with SF-295 CNS was 1.45 µM; in the assay with KM12 colon, 0.932 µM; in the assay with M14 melanoma, 2.47 µM; with SF-539 CNS, 2.2 µM; in the assay on A549 NSCLC, 1.77 µM; with OVCAR-5 ovarian, more than 16 µM. For the same molecule, the GI50 in the assay on NCI/ADR-RES ovarian was 3.51 µM; with K-562 leukemia, more than 24.6 µM; with HCT-116 colon it was 1.09 µM; with HCT-15 colon it was 2.91 µM. In addition, the TGI with SF-295 CNS is 4.68 µM; in the assay with KM12 colon, 2.02 µM; in the assay with M14 melanoma it was more than 15.1 µM; in the assay on SF-539 CNS, more than 50 µM; in the assay with OVCAR-5 ovarian, more than 45.1 µM; with NCI/ADR-RES ovarian, more than 44.9 µM. The TGI is more than 50 µM in the assay on K-562 leukemia, 2.66 µM in the assay on HCT-116 colon and more than 50 µM in the assay on HCT-15 colon.

With `COP1(=S)OCC2CCC[C@@H]2O1` (stereo partly drawn), the TGI in the assay on SF-295 CNS, with KM12 colon, with M14 melanoma, in the assay with SF-539 CNS, in the assay with A549 NSCLC and with OVCAR-5 ovarian was more than 100 µM each time. Besides, the TGI in the assay with NCI/ADR-RES ovarian, in the assay with K-562 leukemia, with HCT-116 colon and with HCT-15 colon was more than 100 µM in each case.

On to `CCc1nc(N)nc(N)c1-c1ccc(Cl)c(N=NN(C)C)c1`, for which the TGI is more than 100 µM with SF-295 CNS; more than 97.3 µM in the assay with KM12 colon; 58.9 µM in the assay on M14 melanoma; 56.9 µM in the assay on SF-539 CNS; 99.5 µM with A549 NSCLC; more than 100 µM in the assay with OVCAR-5 ovarian. For the same molecule, the TGI in the assay with NCI/ADR-RES ovarian was more than 100 µM; in the assay on K-562 leukemia it was more than 65 µM; in the assay on HCT-116 colon it was more than 75.1 µM; in the assay with HCT-15 colon, more than 100 µM.

With `Cc1ccccc1NC(=O)c1sc2nc3c(cc2c1N)C(=O)CCC3`, the GI50 is 1.33 µM in the assay with SF-295 CNS; 1.69 µM with KM12 colon; 2.27 µM in the assay on M14 melanoma; 2.13 µM with SF-539 CNS; 2.22 µM in the assay on A549 NSCLC; 6.82 µM in the assay with OVCAR-5 ovarian. The GI50 with NCI/ADR-RES ovarian is 2.23 µM; in the assay with K-562 leukemia, 0.771 µM; in the assay on HCT-116 colon it was 3.56 µM; with HCT-15 colon, 1.64 µM. Besides, the TGI in the assay on SF-295 CNS is more than 100 µM; in the assay on KM12 colon, more than 100 µM; in the assay with M14 melanoma, more than 100 µM; with SF-539 CNS it was 8.1 µM; in the assay with A549 NSCLC, more than 100 µM; in the assay with OVCAR-5 ovarian, more than 100 µM. For the same molecule, the TGI in the assay with NCI/ADR-RES ovarian, in the assay on K-562 leukemia, in the assay with HCT-116 colon and in the assay with HCT-15 colon was more than 100 µM each time.
